Measurements taken from patent US20180055049A1, “USE OF PRO-[…] UK-2A FOR CONTROL OF BROWN ROT DIESEASE ON STONE AND POME FRUITS” (Dow AgroSciences LLC, priority 2016, published 2018).

Assays:
Assay type in all cases: in vivo
Monilinia spp. (MONILA) [1] = experiment: Field trial 1: brown rot of flowers and branches, apricot, northeastern Italy; conditions: for % Incidence, Branches: Trial 1, branches, 24 DAA, untreated 23.50; for % Incidence, Flowers: Trial 1, flowers, 8 DAA, untreated 21.00
Description: (§1) A fungicidal treatment containing Compound I for use against brown rot diseases on stone fruits was carried out in three field trials. The first two trials were carried out in Italy and France in order to investigate the effectiveness of Compound 1 against brown rot of flowers. These two trials were designed as randomized complete block with four replications (plots respectively of 35 and 50 m^2) and were carried out in typical areas for apricot and peaches cultivation, respectively, in northeastern Italy and southern France. Trials were conducted under EPPO PP1/38(2), PP1/135(3), PP1/152(3), PP1/181(3), PP1/239(1) and related guidelines. Trials were sprayed three times during the flowering period, using a backpack mist blower equipment calibrated to apply product respectively at 600 and 700 L/ha of water volume. […] MONILA disease was evaluated on flowers on a sample of ten pre-marked branches per tree, aged one year. The number of infected flowers was counted and consequently the percent incidence was then calculated. A second assessment was then made on 50 small branches randomly selected in the two 2 central trees for each plot, counting the number of diseased small branches and then the % incidence was calculated.

[2] = system: Monilinia fructicola (MONIFC); experiment: Field trial 3: brown rot of fruits, peach, Ravenna, northeastern Italy; conditions: Trial 3, fruits, 200 g ai/Ha
Description: A third trial was conducted in Italy in order to investigate the effectiveness of Compound I against brown rot of fruits. This trial was designed as randomized complete block with four replications and plots of 49.5 m^2 and was carried out in a typical area for peach cultivation in the province of Ravenna in northeastern Italy. The trial was conducted under EPPO PP1/222(1), PP1/135(2), PP1/152(3), PP1/181(3), PP1/225(1), PP1/239(1) and related guidelines. Products were sprayed twice during fruit ripening respectively at BBCH 79-81 and 81-85 of plant grow stage using a self-propelled air-assisted multi plot sprayer designed for efficacy trials with four independent series of 8 nozzles (Albutz, ATR 80 Yellow) calibrated to apply a spray volume of 1,000 L/ha at a pressure of 450 KPa according to the orchard canopy.
The pathogen was certificated to be Monilinia fructicola (MONIFC) by means of an immunoassay followed by a PCR assay on material collected (mummies) from the trial. The brown rot damage at harvest was evaluated on l00 randomly picked fruits per plot. Visual healthy samples of 60 fruits per plot were placed in alveolus plates and kept for 5 days in cold storage. Afterwards the samples were maintained for 14 days at about 20° C. (shelf life period). Several assessments were made in order to check the development of disease during the shelf life simulation. […]

Monilinia spp. (MONILA) [3] = experiment: Field trial 2: brown rot of flowers and branches, peaches, southern France; conditions: for % Incidence, Branches: Trial 2, branches, 22 DAA, untreated 30.60; for % Incidence, Flowers: Trial 2, flowers, 8 DAA, untreated 55.30
Description: as §1

## COc1ccnc(C(=O)N[C@H]2COC(=O)[C@H](Cc3ccccc3)[C@@H](OC(=O)C(C)C)[C@H](C)OC2=O)c1OCOC(=O)C(C)C [Compound I]
Monilinia spp. (MONILA) [1]; 75 g ai/Ha
  % Incidence, Branches: 22.50%
  % Incidence, Flowers: 11.25%
Monilinia spp. (MONILA) [1]; 100 g ai/Ha
  % Incidence, Branches: 24.50%
  % Incidence, Flowers: 4.75%
Monilinia spp. (MONILA) [1]; 150 g ai/Ha
  % Incidence, Branches: 11.00%
  % Incidence, Flowers: 3.25%
[2]; 7 DAA, untreated 31.3
  % Incidence, Fruits: 15.0%
[2]; 26 DAA, untreated 32.5
  % Incidence, Fruits: 16.8%
Monilinia spp. (MONILA) [3]; 75 g ai/Ha
  % Incidence, Branches: 11.98%
  % Incidence, Flowers: 24.00%
Monilinia spp. (MONILA) [3]; 100 g ai/Ha
  % Incidence, Branches: 9.93%
  % Incidence, Flowers: 16.70%
Monilinia spp. (MONILA) [3]; 150 g ai/Ha
  % Incidence, Branches: 4.20%
  % Incidence, Flowers: 15.40%
